In patent US5846720A, “Methods of determining chemicals that modulate expression of genes associated with cardiovascular disease” (Oncogene Science, Inc., priority 1996, dated 1998):
“Also recorded” adds a separate entry of the source. Like-named read-outs stand apart in the source and are kept apart here.

What was measured:
G-CSF mRNA [1] = test: S1 nuclease protection, G-CSF mRNA; type: cell-based, human; settings: for amount of G-CSF mRNA (S1 nuclease protection): 5637 cells, 18 hours
Procedure: (§1) S1 Nuclease protection assays were carried out as described in reference 118.
(§2) To further confirm, that compounds that had been identified in a luciferase expression assay using a G-CSF specific reporter cell line would be active in inducing transcription of the endogenous G-CSF gene, cells from the parental cell line 5637 used to construct the reporter cell line were incubated with cycloheximide (25 ug/ml), DMSO (0.5%,solvent control) and low, medium and high concentrations of the compounds 542 (10, 50, 250 μM),1255 (20, 100, 500 uM), 1793(0.25, 1.2, 6.25 μM) and 1904 (20, 100 uM) for 18 hours. RNA was extracted and the concentration of G-CSF, GM-CSF and gamma-actin mRNA was determined by the S1 protection method as described in above. The positions of G-CSF GM-CSF and gamma-actin specific protected fragments are indicated (G, GM, A) at the left side of the gel (FIG. 37).

GM-CSF mRNA = test: S1 nuclease protection, GM-CSF mRNA; type: cell-based, human; settings: 5637 cells, 18 hours
Procedure: as §1, §2

M-CSF promoter = test: M-CSF (CSF-1) promoter/luciferase induction, M2071, M2085, M2086; type: cell-based, human; settings: 2,000 units/ml, 16 hours, all three M-CSF clones
Procedure: Human promyelocytic leukemia HL-60 cells are known to express CSF-1 (74). They were transfected with linearized pCSF1-102 (FIG. 21) and linearized PTKneo3 using electroporation as described above. Three neomycin resistant clones were generated: --M2071, M2085 and M2086. All three responded to a 16 hour incubation with 2000 units/ml interferon-gamma by a 20-fold increase of luciferase expression. M2086 was selected for use in the high throughput screen. The WI-38 human fibroblast cell line is also capable of producing CSF-1. Stable transfectants are also prepared from these for screening in a different cellular background. There is evidence for tissue-specific modulation of CSF-1 gene expression, and since the major source of the CSF-1 which stimulates the growth of macrophages at atherosclerotic plaques is unknown, screening with more than one cell line may be useful.
(§3) Promoter induction experiments were also conducted with the GM-CSF reporter cell lines GM1073, GM1088 and GM1105, which were all shown to contain correctly inserted constructs (see above). […] Luciferase expression of clones GM1088 and GM1105 was induced by PMA 2.8 fold and 2 fold, respectively, while TNF-alpha induced both clones 2 fold. All three M-CSF clones responded to a 16-hour incubation with 2,000 units/ml Interferon-gamma by a 20-fold increase of luciferase expression from the M-CSF promoter.

G-CSF mRNA [2] = test: Northern blot of endogenous G-CSF mRNA; type: cell-based, human; settings: U5637 cells, relative to DMSO
Procedure: (§4) Total cellular RNA was isolated from cells following incubation with chemicals as described above and electrophoresed in a 1% Agarose Formaldehyde gel. The RNA was transferred to Duralon-UV nylon filters (Stratagene, La Jolla, Calif.) using the manufacturer's recommended protocol. The filters were prehybridized for 4 hours (prehybridizing solution=5× SSC, 50 mM sodium pyrophosphate, 10× Denhardt's solution, 10% dextran sulfate, 7% SDS and 250 μg/ml denatured ssDNA) and then hybridized in the same solution for 16 hours at 65° C. in the presence of specific probes. The G-CSF probe was a 0.6 kb AflII to Xhol fragment which contained most of exon 5 of the human G-CSF gene. The β-actin (Oncor, Gaithersburg, Md.) probe was used as a control probe to normalize for the total amount of RNA. The probes were labeled with alpha-32P dCTP using a random primed DNA labeling kit (Amersham, Arlington, Ill.). Following hybridization, filters were washed three times at room temperature with 1× SSC, 0.13% SDS and three times at 65° C. with 0.2× SSC, 0.1% SDS. Filters were first probed with the G-CSF specific probe and then reprobed with β-actin-probe. Exposure to x-ray film was performed overnight. Bands were excised and counted in a liquid scintillation counter (LKB, Gaithersburg, Md.), and counts obtained with the G-CSF specific probe were normalized relative to the counts obtained with the β-Actin specific probe.
Also shown are the effects of the solvent, DMSO, used to dissolve the chemicals and a proteinaceous positive regulator, interferon-gamma.

[3] = cited from earlier work; for decrease in serum cholesterol levels: compared with HMGCoA reductase inhibitors like lovastatin
G-CSF promoter [4] = test: G-CSF promoter/luciferase induction by known inducers, clone G1002; type: cell-based, human; settings: for fold induction at 0.02 µg/mL: Homo sapiens, read-out: G-CSF promoter induction
Procedure: U5637 bladder carcinoma cells were transfected with pGVU150 (FIG. 21) or pGVU140 plus pTKNeo3 either by electroporation using a BRL (Gaithersburg, Md.) Cellporator electroporation device or by lipofection using BRL lipofectin and following the manufacturer's protocol. Clones were analyzed for luciferase expression and those testing positive expanded further and frozen in liquid nitrogen. Further analysis of 6 clones (G1002, G2005, G2071, G2085, G3014, G3031) included Southern blotting, reaction to known inducers, satisfactory attachment to microtiter plates and acceptable standard deviation in multiple luciferase expression assays. Clone G1002 was selected for use in the high throughput screen.
Cell clones with correctly integrated promoter/reporter constructs were analyzed for correct reaction to known transcriptional inducers. […] Both TNF-alpha and PMA induction levels of clone G1002 were influenced by the presence or absence of epidermal growth factor (EGF). […] The 9.3 fold induction by PMA in the absence of EGF was reduced to 5.6 fold by including EGF in the serum-free incubation mixture. Similar differences were observed, when EGF was substituted by 10% fetal calf serum.

GM-CSF promoter = test: GM-CSF promoter/luciferase induction by known inducers, GM1073, GM1088, GM1105; type: cell-based, human
Procedure: 6 clones generated by electroporation of U5637 cells with pGMLL103 NEO3 (FIG. 26) were subjected to further analysis as described above for G-CSF: --GM1073 (10 μg; circular); GM1081, GM1088 and GM1090 (5 μg; linear); and GM1098 and GM1105 (10 μg; linear). Clone GM1073 was selected for use in the high throughput screen.
as §3

[5] = tested on: 5637 bladder carcinoma cells; test: G-CSF secretion, two-antibody sandwich immunoassay; type: cell-based, human; settings: 48 hours, serum-containing media
Procedure: Supernatants from 5637 bladder carcinoma cells incubated with chemicals registering as positives in the G-CSF promoter/luciferase high throughput assay were assayed for secreted G-CSF protein using the two-antibody sandwich immunoassay (83). The G-CSF Assay kit manufactured by Oncogene Science, Inc. was used and the manufacturer's instructions were followed.
The levels of G-CSF in the cell supernatants were determined by a sandwich-antibody assay as described in above (FIG. 42).

G-CSF promoter [6] = test: G-CSF promoter/luciferase reporter assay (high-throughput screen I), G21 cells; settings: for G-CSF promoter induction: G21, 7 hours, serum-free; for activation of the G-CSF promoter (dose response): G21 cells; for EC50: read-out: ED50 (concentration of chemical resulting in 50% maximal stimulation), G-CSF reporter cell line G21, range over the three chemicals
[7] = in vivo; cited from earlier work
beta-actin mRNA = test: Northern blot of actin mRNA (control); type: cell-based, human; settings: U5637 cells
Procedure: as §4, with “β-actin-probe. […]” for “β-actin-probe. Exposure to x-ray film was performed overnight.”, “probe. […]” for “probe.”

HMGCoA reductase = settings: animals, high doses; cited from earlier work
[8] = G1002, 7 hours, serum-free, absence of EGF

In the case of `CN(C)C(=S)SCC#N` [#1793], the “amount of G-CSF mRNA (S1 nuclease protection)” value (from here on “amount of G-CSF mRNA”) (G-CSF mRNA [1]) is reported as “increased mRNA production” and the “amount of GM-CSF mRNA (S1 nuclease protection)” value (GM-CSF mRNA) is reported as “increased the amount of GM-CSF mRNA”.

For “Interferon-gamma: a proteinaceous positive regulator, interferon-gamma”, the “increase of luciferase expression from the M-CSF promoter” value (M-CSF promoter) was 20 fold and the “effect on endogenous G-CSF mRNA (Northern blot)” value (shortened to “effect on endogenous G-CSF mRNA”) (G-CSF mRNA [2]) was “increased G-CSF mRNA production”.

In the case of “GM-CSF: colony-stimulating factor GM-CSF”, the “decrease in serum cholesterol levels” value [3] is listed as “profound decreases in serum cholesterol levels” and the “average decrease in serum cholesterol” value ([3]; in vivo) is listed as 37%.

In the case of “Interleukin-1 beta: Interleukin-1 beta, known transcriptional inducer”, the G-CSF promoter induction (G-CSF promoter [4]; G1002, 0.5 ng/ml, 10.5 hours, serum-containing media) is reported as 2.6 fold.

TNF-alpha gave a G-CSF promoter induction (G-CSF promoter [4]; G1002, 8.3 ng/ml, 10.5 hours, serum-containing media) of 2 fold, a G-CSF promoter induction (G-CSF promoter [4]; G1002, 7 hours, serum-free defined media with 20 ng/ml EGF) of 3 fold and a G-CSF promoter induction (G-CSF promoter [4]; [8]) of 4 fold. The GM-CSF promoter induction (GM-CSF promoter; clone GM1088) was 2 fold, the GM-CSF promoter induction (GM-CSF promoter; clone GM1105) was 2 fold and the G-CSF secretion [5] was “increased G-CSF secretion”. For the same molecule, the G-CSF promoter induction (G-CSF promoter [6]; absence of EGF) was 2.1 fold and the G-CSF promoter induction (G-CSF promoter [6]; presence of EGF) was 2.8 fold.

Work on `CCCCCCCCCCCCCC(=O)O[C@@H]1[C@@H](C)[C@@]2(O)[C@@H](C=C(CO)C[C@]3(O)C(=O)C(C)=C[C@@H]23)[C@@H]2C(C)(C)[C@]12OC(C)=O` [PMA, phorbol-myristate-acetate, reference compound] yielded a G-CSF promoter induction (G-CSF promoter [4]; [8]) of 9.3 fold, a fold induction at 0.02 µg/mL (G-CSF promoter [4]; 7 h) of 5.6 and a fold induction at 0.02 µg/mL (G-CSF promoter [4]; 10.5 h) of 4.4. The GM-CSF promoter induction (GM-CSF promoter; GM1073, serum-free media) was 7.5 fold, the fold induction at 0.02 µg/mL (GM-CSF promoter; Homo sapiens, GM1073, 20 ng/ml, 10.5 hours, serum-containing media) was 3.4 and the GM-CSF promoter induction (GM-CSF promoter; clone GM1088) was 2.8 fold. It also gave a GM-CSF promoter induction (GM-CSF promoter; clone GM1105) of 2 fold, a G-CSF promoter induction (G-CSF promoter [6]; absence of EGF) of 34.6 fold and a G-CSF promoter induction (G-CSF promoter [6]; presence of EGF) of 24.6 fold.

For `CC[C@H](C)C(=O)O[C@H]1C[C@@H](C)C=C2C=C[C@H](C)[C@H](CC[C@@H]3C[C@@H](O)CC(=O)O3)[C@H]21` [lovastatin], the “most frequently reported side effects” value [7] is given as “Gastrointestinal disturbances, including flatulence, diarrhea, constipation and nausea”.

With `CN(C)c1ccc(C(=C2C=CC(=[N+](C)C)C=C2)c2ccc(N(C)C)cc2)cc1` [#1780] the “levels of endogenous G-CSF mRNA” value (G-CSF mRNA [1]; method not stated at the place) was “stimulate levels of endogenous G-CSF mRNA”, the G-CSF secretion [5] was “increased G-CSF secretion” and the “scored as positive in repeat assays (G-CSF)” value (G-CSF promoter [6]; 48 independent luciferase assays, same day) was “scored as positives in every single one of these assays”. For the same molecule, the “activation of the G-CSF promoter (dose response)” value (G-CSF promoter [6]) was “specifically activated the G-CSF promoter” and the EC50 (G-CSF promoter [6]) was 5 to 70 µM.

In the case of `Nc1c2ccccc2nc2ccccc12` [#1904], the “amount of G-CSF mRNA” value (G-CSF mRNA [1]) is reported as “increased mRNA production”.

With `CN(C)c1ccc(C(=C2C=CC(=[N+](C)C)C=C2)c2ccc([N+](C)(C)C)cc2)cc1` [#670] the “effect on endogenous G-CSF mRNA” value (G-CSF mRNA [2]) was “increased G-CSF mRNA production; also recorded: stimulated production of G-CSF mRNA”, the “effect on actin mRNA (Northern blot)” value (beta-actin mRNA) was “not of actin mRNA” and the “activation of the G-CSF promoter (dose response)” value (G-CSF promoter [6]) was “specifically activated the G-CSF promoter”. It also gave an EC50 (G-CSF promoter [6]) of 5 to 70 µM.

In the case of `CC[C@H](C)C(=O)O[C@H]1C[C@@H](C)C=C2C=C[C@H](C)[C@H](CC[C@@H]3C[C@@H](O)CC(=O)O3)[C@H]21` [mevinolin], the HMGCoA reductase levels (HMGCoA reductase) is given as “increased levels of HMGCoA reductase”.

For `Clc1cc(Cl)cc(Br)c1` [#1255], the “effect on endogenous G-CSF mRNA” value (G-CSF mRNA [2]) was “increased G-CSF mRNA production; also recorded: stimulated production of G-CSF mRNA”, the “amount of G-CSF mRNA” value (G-CSF mRNA [1]) was “increased mRNA production” and the “effect on actin mRNA (Northern blot)” value (beta-actin mRNA) was “not of actin mRNA”.

B1: CSF-1: colony-stimulating factor-1 (protein, UniProt P09603 33-554, looked up)
Macrophage colony-stimulating …: EEVSEYCSHMIGSGHLQSLQRLIDSQMETSCQITFEFVDQEQLKDPVCYLKKAFLLVQDIMEDTMRFRDNTPNAIAIVQLQELSLRLKSCFTKDYEEHDKACVRTFYETPLQLLEKVKNVFNETKNLLDKDWNIFSKNCNNSFAECSSQDVVTKPDCNCLYPKAIPSSDPASVSPHQPLAPSMAPVAGLTWEDSEGTEGSSLLPGEQPLHTVDPGSAKQRPPRSTCQSFEPPETPVVKDSTIGGSPQPRPSVGAFNPGMEDILDSAMGTNWVPEEASGEASEIPVPQGTELSPSRPGGGSMQTEPARPSNFLSASSPLPASAKGQQPADVTGTALPRVGPVRPTGQDWNHTPQKTDHPSALLRDPPEPGSPRISSLRPQGLSNPSTLSAQPQLSRSHSSGSVLPLGELEGRRSTRDRRSPAEPEGGPASEGAARPLPRFNSVPLTDTGHERQSEGSFSPQLQESVFHLLVPSVILVLLAVGGLLFYRWRRRSHQEPQRADSPLEQPEGSPLTQDDRQVELPV
In the case of B1, the “decrease in serum cholesterol levels” value [3] is given as “profound decreases in serum cholesterol levels”.
